# Test results reported in PubChem BioAssay AID1963832 (Molecular Pharmacology Branch, DTP, NCI, 2024).
# Values joined by “and” are separate entries in the source; they are usually repeats but may differ in a detail not shown here. Equal entries are not always repeated.
# System: 885724-159-R-J1-PDC complex spheroid viability
# Assay: Anticancer human tumor 885724-159-R-J1-PDC patient-derived pancreatic adenocarcinoma cell line growth inhibition [POLQ]
# Conditions: for viability, T/C: stronger effect = lower value
# Protocol: Multicellular complex tumor spheroid response to Polymerase (POL) inhibitors (novobiocin, ART-558, RP6685) in combination with a variety of drugs and investigational agents in selected tumor cell lines
# The POL inhibitors (novobiocin, ART-558, and RP6685) were evaluated both individually and in combination with standard of care and investigational anticancer small molecules within a complex spheroid model of solid tumors. . Complex spheroids include a stromal component modeled by human endothelial cells (HUVEC) and fibroblasts modeled by human mesenchymal stem cells (MSCs). The concentration ranges selected for each drug and investigational agent were based upon clinically achievable concentrations if the clinical Cmax of the agent was known.
# Compounds. The drugs and investigational agents: novobiocin (NSC847541), ART-558 (NSC835418), RP-6685 (NSC848927), peposertib (NSC802822), ceralasertib (NSC780249), elimusertib (NSC800525), camonsertib (NSC841442), AZD-1390 (NSC803789), olaparib (NSC753686), talazoparib (NSC767125), rucaparib (NSC756644), sotorasib (NSC818433), MRTX-1133 (NSC836407), SN-38 (NSC673596), topotecan (NSC609699), epotoside (NSC141540), doxorubicin (NSC123127), gemcitabine (NSC613327), 5-fluorouracil (NSC19893), paclitaxel (NSC125973), vemurafenib (NSC761431), MSA-2 (NSC828583), SN-011 (NSC837082), adavosertib (NSC754352), prexasertib (NSC758257), carboplatin (NSC241240) and oxaliplatin (NSC266046), were obtained from the National Cancer Institute (NCI) Developmental Therapeutics Program Chemical Repository (21). The FDA-approved anticancer drug set is available from the Developmental Therapeutics Program at https://dtp.cancer.gov/organization/dscb/obtaining/. […] The stock solutions were prepared in dimethyl sulfoxide (DMSO, Sigma-Aldrich, St. Louis, MO, cat. D2650), except for the platinum compounds which were prepared in saline (Quality Biological, Gaithersburg, MD, cat. 114-055-101), at 800-fold the tested concentration and stored at -70 degrees C prior to their use. All drugs and investigational agents were tested over a range starting from a high concentration at or near the clinical Cmax and decreasing in half-log increments. If the clinical Cmax for an agent had not been determined, the highest concentration tested was 10 microM, except for SN-38, which was tested at a high concentration of 1 microM.
# Cell Culture. All cells were maintained in an incubator at 37 degrees C and 5% CO2 with 95% humidity. The PDC lines were cultured according to standard operating procedures established by the NCI PDMR (https://pdmr.cancer.gov). Table 3 of the manuscript, lists the cell lines along with the number of the three cell types plated to form the mct-spheroids and media for tumor cell growth. After thawing, all PDC lines, except 997537-175-T-J1-PDC and 415267-285-R-J2-PDC, were cultured in Matrigel-coated flasks prepared with a working solution of 1X Ham's F-12 nutrient mix, without supplementation (Thermo Fisher Scientific, cat. 11765054), 100 U/mL penicillin-streptomycin (Thermo Fisher Scientific, cat. 15140122), and 2.5% Matrigel (Corning Inc., Corning, NY, cat. 354248) for the first three passages. The two PDC lines 997537-175-T-J1-PDC and 415267-285-R-J2-PDC were cultured on uncoated flasks. The 857933-349-R-J2-PDC line was cultured in 6C/Colon 1B media containing advanced DMEM/F-12 (Thermo Fisher Scientific, cat. 12634028), 10 mM HEPES (Thermo Fisher Scientific, cat. 15630080), 1X GlutaMAX supplement (Thermo Fisher Scientific, cat. 35050061), 0.1 mg/mL primocin (InvivoGen, San Diego, CA, cat. ant-pm-2), 10% defined fetal bovine serum, heat inactivated (HyClone Laboratories Inc., Logan, UT, cat. SH30070.03HI), 50% L-WRN conditioned media (ATCC, cat. CRL-3276), 1.25 mM N-Acetyl-L-cysteine (Sigma-Aldrich, cat. A9165), 10 mM nicotinamide (Sigma-Aldrich, cat. N0636), 1X B-27 supplement (Thermo Fisher Scientific, cat. 17504044), 1X N-2 supplement (Thermo Fisher Scientific, cat. […]
# 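Note: spheroids exposed to compounds for 7 days.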
smiles,measurement,setting,value
Cn1ncnc1[C@H]1c2n[nH]c(=O)c3cc(F)cc(c23)N[C@@H]1c1ccc(F)cc1,"viability, T/C",compound 0.000316 µM,96.8% and 84.9% and 99.5%
same,"viability, T/C",compound 0.001 µM,94.3% and 95.2% and 99.7%
same,"viability, T/C",compound 0.00316 µM,91.6% and 90.1% and 98.2%
same,"viability, T/C",compound 0.01 µM,103% and 94.9% and 99.3%
same,"viability, T/C",compound 0.0316 µM,97.7% and 93.4% and 103%
same,"viability, T/C",compound 0.1 µM,83.7% and 84.4% and 85.2%
same,IC50,curve of compound,> 0.1 µM
COc1cc(C2c3cc4c(cc3C(OC3OC5COC(C)OC5C(O)C3O)C3COC(=O)C23)OCO4)cc(OC)c1O (stereo unspecified) + COC1C(OC(N)=O)C(O)C(Oc2ccc3c(O)c(NC(=O)c4ccc(O)c(CC=C(C)C)c4)c(=O)oc3c2C)OC1(C)C,IC50,"curve of first compound, second compound 0.0316 µM",5.34 µM
same,IC50,"curve of first compound, second compound 0.1 µM",3.9 µM
same,IC50,"curve of first compound, second compound 0.316 µM",4 µM
same,IC50,"curve of first compound, second compound 1 µM",4.58 µM
same,IC50,"curve of first compound, second compound 3.16 µM",5.93 µM
same,IC50,"curve of first compound, second compound 10 µM",3.8 µM
same,"viability, T/C","second compound 0.0316 µM, first compound 0.0316 µM",96.7%
same,"viability, T/C","second compound 0.0316 µM, first compound 0.1 µM",81.8%
same,"viability, T/C","second compound 0.0316 µM, first compound 0.316 µM",67.8%
same,"viability, T/C","second compound 0.0316 µM, first compound 1 µM",61.6%
same,"viability, T/C","second compound 0.0316 µM, first compound 3.16 µM",56.2%
same,"viability, T/C","second compound 0.0316 µM, first compound 10 µM",44.4%
same,"viability, T/C","second compound 0.1 µM, first compound 0.0316 µM",93.7%
same,"viability, T/C","second compound 0.1 µM, first compound 0.1 µM",85.5%
same,"viability, T/C","second compound 0.1 µM, first compound 0.316 µM",72%
same,"viability, T/C","second compound 0.1 µM, first compound 1 µM",59.2%
same,"viability, T/C","second compound 0.1 µM, first compound 3.16 µM",53.8%
same,"viability, T/C","second compound 0.1 µM, first compound 10 µM",43.1%
same,"viability, T/C","second compound 0.316 µM, first compound 0.0316 µM",92%
same,"viability, T/C","second compound 0.316 µM, first compound 0.1 µM",84.4%
same,"viability, T/C","second compound 0.316 µM, first compound 0.316 µM",75.7%
same,"viability, T/C","second compound 0.316 µM, first compound 1 µM",59.8%
same,"viability, T/C","second compound 0.316 µM, first compound 3.16 µM",54%
same,"viability, T/C","second compound 0.316 µM, first compound 10 µM",41.9%
same,"viability, T/C","second compound 1 µM, first compound 0.0316 µM",100%
same,"viability, T/C","second compound 1 µM, first compound 0.1 µM",87.5%
same,"viability, T/C","second compound 1 µM, first compound 0.316 µM",71.3%
same,"viability, T/C","second compound 1 µM, first compound 1 µM",58.9%
same,"viability, T/C","second compound 1 µM, first compound 3.16 µM",58.2%
same,"viability, T/C","second compound 1 µM, first compound 10 µM",42.3%
same,"viability, T/C","second compound 3.16 µM, first compound 0.0316 µM",92.5%
same,"viability, T/C","second compound 3.16 µM, first compound 0.1 µM",81.4%
same,"viability, T/C","second compound 3.16 µM, first compound 0.316 µM",69.8%
same,"viability, T/C","second compound 3.16 µM, first compound 1 µM",64.1%
same,"viability, T/C","second compound 3.16 µM, first compound 3.16 µM",53.5%
same,"viability, T/C","second compound 3.16 µM, first compound 10 µM",46.5%
same,"viability, T/C","second compound 10 µM, first compound 0.0316 µM",90.6%
same,"viability, T/C","second compound 10 µM, first compound 0.1 µM",80%
same,"viability, T/C","second compound 10 µM, first compound 0.316 µM",64.7%
same,"viability, T/C","second compound 10 µM, first compound 1 µM",60.5%
same,"viability, T/C","second compound 10 µM, first compound 3.16 µM",54.4%
same,"viability, T/C","second compound 10 µM, first compound 10 µM",42.1%
C=CCn1c(=O)c2cnc(Nc3ccc(N4CCN(C)CC4)cc3)nc2n1-c1cccc(C(C)(C)O)n1,"viability, T/C",compound 0.00316 µM,96.5% and 99.3% and 105%
same,"viability, T/C",compound 0.01 µM,95.4% and 94.4% and 90.4%
same,"viability, T/C",compound 0.0316 µM,93.3% and 87.4% and 93.7%
same,"viability, T/C",compound 0.1 µM,85.1% and 77.1% and 79.6%
same,"viability, T/C",compound 0.316 µM,55.8% and 56.4% and 55.1%
same,"viability, T/C",compound 1 µM,44.7% and 48.3% and 49.7%
same,IC50,curve of compound,0.577 µM and 0.767 µM and 0.846 µM
